“Also recorded” adds a separate entry of the source.
Assays:
[1] = test system: HMGN1 secreted from senescent A549 cells; test: HMGN1 secretion (ELISA) from senescent A549 cancer cells, Example 12; format: cell-based, human; settings: senescent untreated = 100%; 30 μM; 90 μM for LX-305, 905, 1302, 1601, 1603, 2003, 2702, 2901, 3106; 270 μM for LX-1103, 2005, 2007;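 further: A549 cells made senescent by doxorubicin exposure, with DMSO-treated cells serving as the non-senescent control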
Method: Cells were treated with doxorubicin or control (DMSO) and cultured.

senescent foreskin cells = test: Survival of senescent human cells treated with supernatant (secreted fluid) from death-induced cells, Example 13; format: cell-based; settings: for Survival: Table 8, supernatant from dying senescent cells treated at 30, 90 or 270 μM (as Example 11), senescent treated cells
naturally aged mice = test: Anti-aging evaluation in naturally aged mice, Example 31, Table 55; format: in vivo, mouse; settings: for Femur Ctsk mRNA / Kidney Agtr1a mRNA / Liver IL6 mRNA / Liver MMP3 mRNA / Liver p16 mRNA / Open Field Test Time in Center: untreated = 100%; for Heart Sur2a mRNA / Joint Col2a1 mRNA / Skin Col1a1 mRNA / Skin SDF1 mRNA: untreated = 1.0; for Muscle Mass: untreated 0.64 g; for Fat Mass: untreated 0.82 g; for Cataract incidence: untreated 83%;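 on all read-outs here: Vehicle-dosed control mice received solution alone at matching volume, values compare test-compound-treated aged mice against that control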
Method: After the end of drug administration, the method described in each example below was performed. […] The mRNA amounts of p16, MMP3, and IL6 after natural aging was induced were calculated as 100% and compared with the mRNA amounts of p16, MMP3, and IL6 after treatment with the test compound. In addition, an open field test for the analysis of aging-related frailty, agtr1a mRNA analysis for kidney damage and disease evaluation, col1a1 and SDF1 mRNA analysis for skin aging evaluation such as wrinkles/loss of elasticity/hyperpigmentation, col2a1 mRNA analysis for evaluating joint aging such as osteoarthritis, sur2a mRNA analysis for evaluating cardiac aging such as decreased cardiac load resistance, ctsk mRNA analysis for evaluating bone diseases due to aging such as osteoporosis, muscle tissue weight for analyzing sarcopenia, fat tissue weight for analyzing lipoatrophy, and cataract incidence analysis were performed in mice. For cataract incidence analysis, the drug was administered twice a week under the conditions specified above, and biweekly examinations were conducted until death.

[2] = test system: bleomycin-induced pulmonary fibrosis mice; test: Bleomycin-induced pulmonary fibrosis mice, Example 31, Table 56; format: in vivo, mouse; settings: untreated = 100%
Procedure, shortened: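 After treatment with test compound or vehicle alone, lungs of bleomycin-induced pulmonary fibrosis mice were harvested. Total RNA extracted and gene expression quantified by qRT-PCR.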

[3] = test system: carbon tetrachloride-induced liver fibrosis mice; test: Carbon tetrachloride-induced liver fibrosis mice, Example 31, Table 57; format: in vivo, mouse; settings: CCl4-induced liver fibrosis mice, untreated = 100%
Procedure, shortened: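 Mice with induced hepatic fibrosis received either the test compound or, as controls, an equal volume of vehicle solution alone. Once dosing ended, liver tissue was harvested and total RNA was isolated. cDNA was synthesized from this RNA, and quantitative RT-PCR was run on it to measure hepatic mRNA levels of the fibrosis- and senescence-related genes.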

senescent human cells = test: Viability of doxorubicin-induced senescent human cells (CellTiter-Glo), Example 11; format: cell-based; settings: excessive concentrations (1 or 20 mM)
Method: Cells in which senescence was induced by treatment with doxorubicin were treated with the test compound at designated concentrations and measured using the CellTiter-Glo Luminescent Cell Viability Assay (Promega).
After 3 days, cell viability was measured using CellTiter-Glo Luminescent Cell Viability Assay (Promega) or light microscopy.

[4] = test system: naturally aged C57BL6J mice; format: in vivo, mouse; settings: mouse, in vivo
senescent cells = test: Viability of senescent cells (CellTiter-Glo), Example 17, Table 13; settings: Homo sapiens, read-out: Survival (%)
Method: Cells induced to undergo senescence by doxorubicin treatment were treated with test compound at designated concentrations and measured using the CellTiter-Glo Luminescent Cell Viability Assay (Promega).

senescent A549 cells = test: Viability of senescent A549 cells (CellTiter-Glo), Example 18, Table 15; settings: Homo sapiens, A549, read-out: Survival (%)
Method: Senescence-induced cancer cells treated with doxorubicin were treated with the test compound at designated concentrations, and cell viability was measured using the CellTiter-Glo Luminescent Cell Viability Assay (Promega).

Row | Structure (SMILES) | HMGN1 [1] | Survival (senescent foreskin cells) | Femur Ctsk mRNA (naturally aged mice) | Heart Sur2a mRNA (naturally aged mice) | Joint Col2a1 mRNA (naturally aged mice) | Kidney Agtr1a mRNA (naturally aged mice) | Liver IL6 mRNA (naturally aged mice) | Liver MMP3 mRNA (naturally aged mice) | Liver p16 mRNA (naturally aged mice) | Open Field Test Time in Center (naturally aged mice) | Skin Col1a1 mRNA (naturally aged mice) | Skin SDF1 mRNA (naturally aged mice) | Muscle Mass (naturally aged mice) | Fat Mass (naturally aged mice) | Cataract incidence (naturally aged mice) | Lung p16 mRNA [2] | Col1a1 mRNA [2] | Liver p16 mRNA [3] | Col1a1 mRNA [3] | other results
1 | Cc1[nH]nc(C(F)(F)F)c1Cc1sc2c(c1C(=O)N1C[C@](C)(O)CO1)c(=O)n(C)c(=O)n2C(C)C [LX-3203] | 293% | 57.1 | 55% | 1.8 fold | 1.6 fold | 68% | 67% | 62% | 66% | 183% | 1.8 Fold | 2.2 fold | 0.68 g | 0.85 g | 75% | 69 (±5.0) % | 64 (±4.5) % | 64 (±4.0) % | 66 (±4.5) % | –
2 | O=C(O)c1cc(/N=N/c2ccc(S(=O)(=O)Nc3ccccn3)cc2)ccc1O [LX-1302, Sulfasalazine] | 147% | 98.5 | 75% | 2.3 fold | 2.5 fold | 62% | 48% | 47% | 55% | 201% | 2.4 Fold | 1.8 fold | 0.70 g | 0.92 g | 73% | 41 (±1.5) % | 59 (±2.6) % | 52 (±4.4) % | 48 (±3.2) % | –
3 | NCC(=O)CCC(=O)O [LX-1103, 5-Aminolevulinic acid] | 158% | 101.8 | 78% | 2.4 fold | 2.8 fold | 76% | 70% | 68% | 47% | 183% | 2.3 Fold | 1.7 fold | 0.68 g | 0.89 g | 54% | 73 (±3.2) % | 76 (±5.3) % | 77 (±3.5) % | 60 (±6.9) % | –
4 | COc1cc(OC)cc(N(CCNC(C)C)c2ccc3ncc(-c4cnn(C)c4)nc3c2)c1 [LX-1903, Erdafitinib] | – | 62.8 | 77% | 1.4 fold | 1.7 fold | – | 58% | 75% | 69% | 161% | 1.2 Fold | 1.4 fold | 0.69 g | 0.97 g | 79% | 73 (±6.6) % | 70 (±9.3) % | 67 (±9.2) % | 62 (±6.9) % | –
5 | CO[C@]1(C(=O)N[C@@H](C)c2ccc(-n3cc(F)cn3)nc2)CC[C@H](c2nc(C)cc(Nc3cc(C)[nH]n3)n2)CC1 [LX-1902, Pralsetinib] | 271% | 53.4 | 81% | 1.5 fold | 1.5 fold | 71% | 79% | 81% | 72% | 157% | 1.2 Fold | 1.6 fold | 0.68 g | 0.95 g | 76% | 72 (±8.8) % | 64 (±8.2) % | 77 (±9.6) % | 68 (±5.7) % | –
6 | OO [H2O2] | – | – | – | – | – | – | – | – | – | – | – | – | – | – | – | – | – | – | – | removal of senescent cells (senescent human cells): hardly removed
7 | CC(=O)N[C@@H](Cc1c[nH]c2ccccc12)C(=O)N[C@@H](CCC(=O)C=[N+]=[N-])C(=O)OC(C)C [LX-3201, Sirpiglenastat] | 309% | 55.2 | 80% | 2.1 fold | 1.7 fold | 78% | 71% | 64% | 80% | 171% | 1.6 Fold | 2.0 fold | 0.71 g | 1.06 g | 76% | 77 (±5.9) % | 73 (±3.8) % | 71 (±9.4) % | 82 (±8.2) % | –
8 | Cc1oncc1C(=O)Nc1ccc(C(F)(F)F)cc1 [LX-1603, Leflunomide] | 163% | 97.5 | 64% | 2.0 fold | 2.3 fold | 77% | 61% | 73% | 74% | – | 2.6 Fold | 1.7 fold | 0.69 g | 0.92 g | 78% | 78 (±6.1) % | 48 (±2.5) % | 67 (±3.5) % | 54 (±2.9) % | –
9 | CCn1c(C#CCNc2ccccc2)cc2cc(CNC)ccc21 [LX-905] | 217% | 46.5 | 62% | 2.4 fold | 2.3 fold | 52% | 38% | 76% | 67% | 241% | 2.0 Fold | 1.5 fold | 0.69 g | 1.08 g | 65% | 67 (±5.5) % | 59 (±13.3) % | 76 (±6.0) % | 71 (±7.5) % | –
10 | CC(=O)N[C@@H](CS)C(=O)O [NAC, N-acetyl cysteine] | – | – | – | – | – | – | – | – | – | – | – | – | – | – | – | – | – | – | – | removal of senescent cells (senescent human cells): hardly removed
11 | C=C(C)[C@@H]1CC[C@]2(C)CC[C@]3(C)[C@H](CC[C@@H]4[C@@]5(C)CC[C@H](O)C(C)(C)[C@@H]5CC[C@]43C)[C@@H]12 [LX-5433, Lupeol] | – | – | – | – | – | – | – | – | – | – | – | – | – | – | – | – | – | – | – | wound/damage healing improvement [4]: damage treatment and recovery; viability at 1.1 µM (senescent cells): 108%; viability at 10 µM (senescent cells): 71.1%; viability at 30 µM (senescent cells): 51.8%; viability at 90 µM (senescent cells): 2.4%; viability at 1.1 µM (senescent A549 cells): 97.8%; viability at 10 µM (senescent A549 cells): 76.5%; viability at 30 µM (senescent A549 cells): 64.7%; viability at 90 µM (senescent A549 cells): 19.3%
12 | CCc1nc(C(N)=O)c(Nc2ccc(N3CCC(N4CCN(C)CC4)CC3)c(OC)c2)nc1NC1CCOCC1 [LX-3303, Gilteritinib] | 239% | 53.5 | 76% | 1.9 fold | 2.1 fold | 69% | 83% | 73% | 63% | 186% | 1.2 Fold | 1.7 fold | 0.72 g | 1.08 g | 61% | 68 (±6.9) % | 78 (±5.1) % | 62 (±4.9) % | 65 (±6.2) % | –
13 | C[C@H](N)C(=O)N1C[C@H](CCCB(O)O)[C@](N)(C(=O)O)C1 [LX-3107, Numidargistat] | 267% | 62.1 | 81% | 1.7 fold | 1.1 fold | 75% | 49% | 68% | 54% | 167% | 1.2 Fold | 1.4 fold | 0.67 g | 0.99 g | 65% | 81 (±3.9) % | 68 (±5.1) % | 80 (±3.6) % | 69 (±8.0) % | –
14 | O=c1c2ccccc2[se]n1CCn1[se]c2ccccc2c1=O [LX-112, 1,2-[bis(1,2-benzisoselenazolone-3 (2H)-ketone)]ethane] | – | – | – | – | – | – | – | – | – | – | – | – | – | – | – | – | – | – | – | death of senescent cells by medium supernatant (senescent foreskin cells; supernatants from proliferating and senescent death-induced cells): selectively induced the death of senescent cells; also recorded: same results
